Reference: patent publication US10039812B2, “Therapeutic for treating clostridium difficile infection” (priority 2012, dated 2018)
Read-outs that look alike come from different tables or passages of the source. Where no end group is shown, it is not given here.

Key:
S. aureus = conditions: cited from earlier work; for Biofilm disassembly: 10 μM, 100 μM and 500 μM
[1] = tested on: C. difficile strain 630Δerm; type: cell-based, Clostridium difficile; conditions: for Effect on biofilm (disassembly): 3 μM D-tyrosine, 2 mM D-methionine, 5 mM D-tryptophan, 8.5 mM D-leucine, mixture 2.5 nM each (FIG. 12)
B. subtilis biofilms = conditions: cited from earlier work
[2] = tested on: C. difficile strain R20291; type: cell-based, Clostridium difficile
[3] = tested on: 630Δerm C. difficile biofilms; assay: DNase treatment of biofilms visualised by confocal microscopy; type: cell-based, Clostridium difficile; conditions: for Degradation of the biofilm (confocal microscopy): 15 minutes
Description: The untreated controls were incubated for 15 minutes with 0.15 M NaCl and washed with 1×PBS. These coverslips were mounted onto glass slides, a coverslip was applied over a 50% glycerol mounting media and these were sealed with clear nail varnish. The slides were visualised under oil immersion using a ×40 objective using a laser confocal microscope (Zeiss microscope).

[4] = tested on: C. difficile R20291 biofilm; assay: DNase, RNase and proteinase K digests of biofilm in liquid culture; conditions: 15 minutes
[5] = tested on: C. difficile strain 630Δerm; assay: Inhibition of biofilm formation in TC flasks
[6] = tested on: C. difficile 630Δerm biofilm; assay: DNase, RNase and proteinase K digests of biofilm (floc) in liquid culture; conditions: 15 minute treatment, room temperature
[7] = 3 μM D-tyrosine, 2 mM D-methionine, 5 mM D-tryptophan, 8.5 mM D-leucine, mixture 2.5 nM each
[8] = 10 μg/ml added prior to inoculation, 6 day incubation, static and shaking

Compound: Human beta-defensin 3: cationic peptide shown to inhibit biofilm formation in S. aureus (GIINTLQKYYCRVRGGRCAVLSCLPKEEQIGKCSTRGRKCCRRKK; ends and bridges not checked; cysteine pairing not given here; UniProt P81534 23-67, looked up)
- Inhibition of biofilm formation (S. aureus): inhibit biofilm formation

Compound: N[C@H](Cc1c[nH]c2ccccc12)C(=O)O [D-tryptophan]
- Biofilm formation [1]: increased the biofilm formation
- Disruption of biofilms [1]: not disrupted
- Effect on biofilm (disassembly) [1]: no significant effect
- Biofilm disassembly (B. subtilis biofilms; [7]): disassembled
- Biofilm formation [2]: increased the biofilm formation
- Disruption of biofilms [2]: not disrupted
- Effect on biofilm (disassembly) [2]: no significant effect

Compound: O=C(O)[C@H]1CCCN1 [D-proline]
- Biofilm disassembly (S. aureus): disassembled

Compound: CC(C)C[C@@H](N)C(=O)O [D-leucine]
- Effect on biofilm formation [1]: ineffective
- Growth of the bacteria [1]: inhibited
- Effect on biofilm (disassembly) [1]: no significant effect
- Biofilm disassembly (B. subtilis biofilms; [7]): disassembled
- Effect on biofilm (disassembly) [2]: no significant effect
- Effect on biofilm formation [2]: ineffective
- Growth of the bacteria [2]: reduced

Compound: N[C@H](Cc1ccc(O)cc1)C(=O)O [D-tyrosine]
- Effect on biofilm (disassembly) [1]: no significant effect
- Biofilm disassembly (B. subtilis biofilms; [7]): disassembled
- Biofilm disassembly (S. aureus): disassembled
- Effect on biofilm (disassembly) [2]: no significant effect

Compound: DNase
- Degradation of the biofilm (confocal microscopy) ([3]; 1 ug DNase): incomplete degradation
- Degradation of the biofilm (confocal microscopy) ([3]; 10 ug DNase): incomplete degradation
- Degradation of the biofilms (confocal microscopy) ([3]; DNase for 15 minutes, BHIS and YP media, compared to untreated controls): biofilms were absent
- Degradation of the biofilm ([4]; 1 mg/ml): degradation of the biofilm observed
- Degradation of the biofilm [4]: degradation of the biofilm observed
- Bacterial growth (turbidity of media) [5, 8]: turbid, indicating bacterial growth
- Biofilm formation (flocs or aggregates) [5, 8]: no flocs or aggregates were observed
- Formation of biofilm in liquid media ([5]; 10 mg/ml in the growth media, incubated statically for six days (FIG. 9)): inhibits the formation of biofilm
- Degradation of the biofilm (floc produced in static culture) ([6]; 100 ug/ml): Degradation of the biofilm was observed
- Degradation of the biofilm (floc produced in static culture) ([6]; 1 mg/ml): Degradation of the biofilm was observed

Compound: NCCCNCCCN [norspermidine]
- Biofilm level [1]: significantly reduced
- Disassembly of biofilm performed in tissue culture flasks [1]: not disrupted
- Disassembly of biofilms [1]: does not disassemble biofilms
- Viability [1]: slight decrease in viability
- Biofilm disassembly (B. subtilis biofilms; norspermidine at 100, 50 and 25 μM): disassemble biofilms
- Biofilm formation on addition to biofilm cultures [2]: enhances the biofilm formation
- Disassembly of biofilms [2]: does not disassemble biofilms

Compound: N[C@H](Cc1ccccc1)C(=O)O [D-phenylalanine]
- Biofilm disassembly (S. aureus): disassembled

Compound: CSCC[C@@H](N)C(=O)O [D-methionine]
- Effect on biofilm (disassembly) [1]: no significant effect
- Biofilm disassembly (B. subtilis biofilms; [7]): disassembled
- Effect on biofilm (disassembly) [2]: no significant effect
